Patent publication US7981903B2, “2-[2-{phenylamino}-1H-pyrrolo[2,3-D]pyrimidin-4-yl)amino] benzamide derivatives as IGF-1R inhibitors for the treatment of cancer” (GlaxoSmithKline LLC, priority 2007, dated 2011)

Key:
human IGF1R (hIGF1R) = biological target: T1, human IGF1R (hIGF1R) (Homo sapiens, UniProt P08069); assay: TR-FRET kinase assay of purified hIGF1R; format: biochemical; conditions: activated hIGF1R 0.5 nM, 10 μM ATP, values given as pIC50 category, read-out: IGF-1R pIC50 (converted)
T1 construct: containing amino acid residues 957-1367 of human IGF1R; made in house; host or cells: Sf9 cells (baculovirus)
T1 sequence (P08069 957-1367): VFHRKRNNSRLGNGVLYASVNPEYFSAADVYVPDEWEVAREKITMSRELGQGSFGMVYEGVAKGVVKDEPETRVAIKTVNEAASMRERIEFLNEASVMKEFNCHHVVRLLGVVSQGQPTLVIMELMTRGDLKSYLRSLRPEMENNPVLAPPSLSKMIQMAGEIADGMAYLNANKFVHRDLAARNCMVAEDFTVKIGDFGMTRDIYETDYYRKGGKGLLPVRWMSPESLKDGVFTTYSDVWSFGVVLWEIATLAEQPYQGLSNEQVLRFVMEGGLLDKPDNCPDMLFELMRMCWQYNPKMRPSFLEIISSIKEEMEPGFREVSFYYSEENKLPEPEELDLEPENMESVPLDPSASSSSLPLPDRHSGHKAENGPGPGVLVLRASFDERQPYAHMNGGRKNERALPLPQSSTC

[1] = biological target: T2, NIH-3T3 cells overexpressing human IR (Homo sapiens, UniProt P06213); assay: IR cellular autophosphorylation (DELFIA); format: cell-based; conditions: 2 h compound, insulin 3 ug/ml for 15 minutes, IC50 category
T2 construct: expressed in transfected cells; host or cells: NIH-3T3 (mouse fibroblasts)
T2 sequence (P06213 28-1382): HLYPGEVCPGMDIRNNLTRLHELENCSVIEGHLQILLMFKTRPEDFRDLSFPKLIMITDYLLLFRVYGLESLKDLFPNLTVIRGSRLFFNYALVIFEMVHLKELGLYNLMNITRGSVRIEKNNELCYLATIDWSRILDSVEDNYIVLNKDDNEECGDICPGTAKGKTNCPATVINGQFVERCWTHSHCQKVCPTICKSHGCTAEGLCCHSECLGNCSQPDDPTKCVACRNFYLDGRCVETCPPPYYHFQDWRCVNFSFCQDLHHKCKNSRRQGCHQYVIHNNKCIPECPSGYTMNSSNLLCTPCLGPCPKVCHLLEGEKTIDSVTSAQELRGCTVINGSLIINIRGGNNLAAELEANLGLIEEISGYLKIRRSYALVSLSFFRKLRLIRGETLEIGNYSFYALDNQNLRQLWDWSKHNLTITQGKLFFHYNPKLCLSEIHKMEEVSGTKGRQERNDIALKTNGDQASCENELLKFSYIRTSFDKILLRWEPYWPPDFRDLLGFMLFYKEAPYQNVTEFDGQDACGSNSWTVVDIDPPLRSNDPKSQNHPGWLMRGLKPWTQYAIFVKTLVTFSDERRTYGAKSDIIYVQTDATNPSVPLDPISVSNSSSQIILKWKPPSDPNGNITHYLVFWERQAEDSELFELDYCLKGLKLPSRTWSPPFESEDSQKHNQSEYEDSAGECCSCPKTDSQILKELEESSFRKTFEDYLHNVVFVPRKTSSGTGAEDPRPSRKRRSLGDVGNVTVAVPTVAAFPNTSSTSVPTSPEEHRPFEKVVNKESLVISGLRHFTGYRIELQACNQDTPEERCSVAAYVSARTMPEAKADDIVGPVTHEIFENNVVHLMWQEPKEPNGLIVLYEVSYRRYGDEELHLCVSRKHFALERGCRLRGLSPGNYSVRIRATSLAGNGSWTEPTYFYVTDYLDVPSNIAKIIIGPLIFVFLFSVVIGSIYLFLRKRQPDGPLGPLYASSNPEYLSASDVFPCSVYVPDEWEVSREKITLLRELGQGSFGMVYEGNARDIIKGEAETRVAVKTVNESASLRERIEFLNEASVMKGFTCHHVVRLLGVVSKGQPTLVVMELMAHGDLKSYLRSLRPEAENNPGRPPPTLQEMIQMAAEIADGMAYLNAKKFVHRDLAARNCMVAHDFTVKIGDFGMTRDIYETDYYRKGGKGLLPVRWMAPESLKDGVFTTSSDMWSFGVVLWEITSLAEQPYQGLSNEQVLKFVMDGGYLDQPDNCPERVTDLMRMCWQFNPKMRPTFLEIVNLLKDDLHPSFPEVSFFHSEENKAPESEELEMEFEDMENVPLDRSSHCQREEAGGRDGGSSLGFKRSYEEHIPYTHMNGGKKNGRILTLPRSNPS
Experimental: (§1) NIH-3T3 cells overexpressing human IGF-1R or IR were plated in 96-well plates (10,000 cells/well) in culture media containing 10% fetal bovine serum and incubated at 37° C. in a 5% CO2 incubator. Twenty four hours post-plating, cells were treated with different concentrations of test compounds ranging from 30 uM to 1.5 nM. Two hours after compound addition, cells were stimulated with either human IGF-1 (30 ng/ml) or insulin (3 ug/ml) for 15 minutes. Cell lysates are analyzed for phosphorylated receptors using dissociation enhanced lanthanide fluor-immuno assay (DELFIA) with anti-IGF-1R (MAB391, R&D Systems, Minneapolis, Minn.) or anti-IRβ (sc-711, Santa Cruz Biotechnology, Santa Cruz, Calif.) capture antibody and europium-labeled anti-pTyr antibody (Eu-N1 PT66, Perkin Elmer, Waltham, Mass.) for detection. The fluorescence signal for cells treated with compounds was expressed as percent relative to 100% stimulation (IGF-1 or insulin stimulated signal).

human IR (hIR) = biological target: T3, human IR (hIR) (Homo sapiens, UniProt P06213); assay: TR-FRET kinase assay of purified hIR; format: biochemical; conditions: activated hIR 0.5 nM, 10 μM ATP, values given as pIC50 category
T3 construct: containing amino acid residues 979-1382 of human IR; made in house; host or cells: Sf9 cells (baculovirus), same process as hIGF1R
T3 sequence (P06213 979-1382): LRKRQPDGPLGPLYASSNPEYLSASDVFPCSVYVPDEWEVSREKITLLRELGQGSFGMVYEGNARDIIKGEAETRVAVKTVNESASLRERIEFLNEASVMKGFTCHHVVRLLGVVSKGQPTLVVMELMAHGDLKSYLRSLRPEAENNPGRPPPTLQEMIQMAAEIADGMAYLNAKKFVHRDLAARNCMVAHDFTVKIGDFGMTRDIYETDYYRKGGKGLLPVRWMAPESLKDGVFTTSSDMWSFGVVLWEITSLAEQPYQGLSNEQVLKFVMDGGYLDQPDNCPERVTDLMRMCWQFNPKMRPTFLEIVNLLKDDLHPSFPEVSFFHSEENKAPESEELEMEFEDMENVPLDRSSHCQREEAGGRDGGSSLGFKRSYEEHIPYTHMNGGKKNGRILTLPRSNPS

[2] = biological target: T4, NIH-3T3 cells overexpressing human IGF-1R (Homo sapiens, UniProt P08069); assay: IGF-1R cellular autophosphorylation (DELFIA); format: cell-based
T4 construct: expressed in transfected cells; host or cells: NIH-3T3 (mouse fibroblasts)
T4 sequence (P08069 31-1367): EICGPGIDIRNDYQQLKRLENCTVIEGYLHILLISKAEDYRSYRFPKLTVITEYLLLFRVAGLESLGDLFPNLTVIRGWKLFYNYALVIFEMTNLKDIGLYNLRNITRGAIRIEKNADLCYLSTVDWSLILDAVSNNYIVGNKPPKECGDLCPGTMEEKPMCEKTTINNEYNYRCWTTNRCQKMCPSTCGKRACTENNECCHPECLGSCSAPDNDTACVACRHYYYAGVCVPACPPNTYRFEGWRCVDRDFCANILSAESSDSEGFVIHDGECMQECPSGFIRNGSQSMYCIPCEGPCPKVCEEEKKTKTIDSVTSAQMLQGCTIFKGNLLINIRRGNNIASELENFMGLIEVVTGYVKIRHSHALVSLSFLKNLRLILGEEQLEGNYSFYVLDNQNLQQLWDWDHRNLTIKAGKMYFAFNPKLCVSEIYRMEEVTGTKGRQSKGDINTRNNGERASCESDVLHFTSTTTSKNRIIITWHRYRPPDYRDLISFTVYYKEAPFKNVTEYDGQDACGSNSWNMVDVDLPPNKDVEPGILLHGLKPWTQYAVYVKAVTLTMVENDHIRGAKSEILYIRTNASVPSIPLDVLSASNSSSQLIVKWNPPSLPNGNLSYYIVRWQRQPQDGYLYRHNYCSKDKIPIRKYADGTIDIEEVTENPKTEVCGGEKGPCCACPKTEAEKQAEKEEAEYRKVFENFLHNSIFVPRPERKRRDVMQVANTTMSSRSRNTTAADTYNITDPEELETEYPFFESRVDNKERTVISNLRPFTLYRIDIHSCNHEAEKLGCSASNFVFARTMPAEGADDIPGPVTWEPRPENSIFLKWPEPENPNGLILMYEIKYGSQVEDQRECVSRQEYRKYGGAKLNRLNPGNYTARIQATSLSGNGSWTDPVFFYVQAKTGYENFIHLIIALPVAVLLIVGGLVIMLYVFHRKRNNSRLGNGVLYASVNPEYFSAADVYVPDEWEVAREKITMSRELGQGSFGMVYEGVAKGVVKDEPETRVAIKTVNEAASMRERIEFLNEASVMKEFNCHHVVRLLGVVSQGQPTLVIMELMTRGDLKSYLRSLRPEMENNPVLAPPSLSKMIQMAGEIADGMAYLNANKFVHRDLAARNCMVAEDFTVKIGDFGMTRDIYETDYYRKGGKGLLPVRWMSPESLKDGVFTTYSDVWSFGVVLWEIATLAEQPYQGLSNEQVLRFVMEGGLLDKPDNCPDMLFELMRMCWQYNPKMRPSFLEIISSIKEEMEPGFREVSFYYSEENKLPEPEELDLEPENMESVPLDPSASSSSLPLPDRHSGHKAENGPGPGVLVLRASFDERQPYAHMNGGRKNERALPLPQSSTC
Experimental: as §1

ALK = ALK (Homo sapiens, UniProt Q9UM73); assay: ALK enzyme assay (HTRF); format: biochemical; conditions: 0.25 nM ALK, 15.0 μM ATP, values given as pIC50 category
ALK, sequence (Q9UM73 19-1620): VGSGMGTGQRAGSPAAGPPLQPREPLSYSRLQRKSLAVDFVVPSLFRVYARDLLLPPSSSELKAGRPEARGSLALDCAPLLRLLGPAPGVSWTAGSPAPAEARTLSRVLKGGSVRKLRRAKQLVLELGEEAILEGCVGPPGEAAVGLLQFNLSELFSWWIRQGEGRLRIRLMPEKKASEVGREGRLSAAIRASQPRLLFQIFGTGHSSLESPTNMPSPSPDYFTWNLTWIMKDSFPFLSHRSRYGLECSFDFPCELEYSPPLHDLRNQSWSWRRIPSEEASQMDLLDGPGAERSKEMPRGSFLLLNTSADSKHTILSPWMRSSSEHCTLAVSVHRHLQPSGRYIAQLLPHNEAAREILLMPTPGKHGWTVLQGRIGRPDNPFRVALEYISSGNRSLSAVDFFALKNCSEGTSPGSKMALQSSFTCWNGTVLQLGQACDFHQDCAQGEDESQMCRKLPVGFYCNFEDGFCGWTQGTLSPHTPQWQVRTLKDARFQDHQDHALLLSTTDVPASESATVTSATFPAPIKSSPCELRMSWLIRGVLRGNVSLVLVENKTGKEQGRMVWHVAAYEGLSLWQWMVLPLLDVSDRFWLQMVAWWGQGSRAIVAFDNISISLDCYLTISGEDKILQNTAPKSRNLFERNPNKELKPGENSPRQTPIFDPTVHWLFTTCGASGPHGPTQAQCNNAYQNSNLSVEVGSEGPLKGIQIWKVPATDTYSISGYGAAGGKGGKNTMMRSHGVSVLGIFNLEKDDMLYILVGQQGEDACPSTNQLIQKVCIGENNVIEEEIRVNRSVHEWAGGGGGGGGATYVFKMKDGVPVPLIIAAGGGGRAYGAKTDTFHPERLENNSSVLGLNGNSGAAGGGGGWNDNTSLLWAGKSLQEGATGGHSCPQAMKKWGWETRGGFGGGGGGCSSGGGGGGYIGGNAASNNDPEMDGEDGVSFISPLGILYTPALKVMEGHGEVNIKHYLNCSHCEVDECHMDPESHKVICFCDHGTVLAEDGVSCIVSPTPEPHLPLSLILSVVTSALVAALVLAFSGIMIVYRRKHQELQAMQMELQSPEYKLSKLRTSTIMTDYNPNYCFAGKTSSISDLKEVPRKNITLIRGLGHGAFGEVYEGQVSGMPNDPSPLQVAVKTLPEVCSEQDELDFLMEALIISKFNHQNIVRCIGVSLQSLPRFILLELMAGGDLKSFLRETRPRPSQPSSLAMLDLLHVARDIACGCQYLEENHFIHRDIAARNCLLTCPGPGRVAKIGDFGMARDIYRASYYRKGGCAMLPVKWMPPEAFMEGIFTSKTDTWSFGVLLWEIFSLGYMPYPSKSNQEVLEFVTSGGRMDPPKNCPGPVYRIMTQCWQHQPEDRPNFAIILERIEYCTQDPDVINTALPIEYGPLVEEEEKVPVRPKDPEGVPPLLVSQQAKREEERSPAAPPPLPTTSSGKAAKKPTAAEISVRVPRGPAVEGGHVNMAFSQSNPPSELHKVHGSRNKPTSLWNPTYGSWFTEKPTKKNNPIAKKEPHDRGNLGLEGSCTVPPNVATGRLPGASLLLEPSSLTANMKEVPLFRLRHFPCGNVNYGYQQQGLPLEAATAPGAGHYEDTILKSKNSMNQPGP
In short: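 Isolated ALK phosphorylates a biotinylated tyrosine peptide, 120 min at 20° C; anti-phosphotyrosine Eu-cryptate/streptavidin-XL665 HTRF read after 60 min with EDTA-containing detection mix.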

Colo205 = assay: Inhibition of cell proliferation (CellTiter-Glo or InCell analyzer), Colo205; format: cell-based; conditions: Homo sapiens, COLO 205, 72 h / 3 days, values given as IC50 category
Experimental: Cell proliferation was measured by either CellTiter-Glo (measures cellular ATP level as a surrogate for total cell number) or by InCell analyzer (counts number of nuclei as a measure of cell number).
For CellTiter-Glo assay, exponentially growing cell lines of different tumor origins, cultured in appropriate media containing 10% fetal bovine serum at 37° C. in a 5% CO2 incubator, were plated at low density (less than 2000cells/well) in 96-well plates. Twenty four hours post-plating, cells were treated with different concentrations of test compounds ranging from 30 uM to 1.5 nM. Several wells were left untreated as a control. Seventy two hours post-treatment, cell numbers were determined using 50-100 ul per well of CellTiter-Glo (Promega #G7573). Plates were incubated at 37° C. for 30 minutes and the chemiluminescent signal was read on the Victor V or Envison 2100 reader.
For InCell Analyser assay, various cell lines of different tumor origins were grown to 70-80% confluency in appropriate culture media containing 10% fetal bovine serum at 37° C. in a 5% CO2 incubator. On day −1, cells were seeded at 2 densities in 384-well plates and incubated at 37° C. overnight. Stock compound plates were prepared in advance which contained dimethyl sulfoxide (DMSO) alone and a 9-point half-log decreasing dose range of the compound in DMSO. The compound plates were stored at −80° C. and each plate was only thawed once and used. On day 0, the main assay plates received compound or DMSO via a sonic delivery system (ECHO). The highest final concentration of compound of the dose range in the culture plates was 10 uM. These plates were cultured at 37° C. for 3 days. […] On day 3, the compound treated plates were stained and fixed to measure proliferation, apoptosis, and mitotic index using an InCelL1000 analyser. A nuclear stain was used to identify cells in the wells. By counting the number of nuclei, the proliferation index of compound treated groups were calculated as a percentage relative to the DMSO control, which was set to 100%. The IC50 values were calculated using model 205 in ExcelFit.
IC50 (nM) values for compounds of select examples were categorized by relative inhibition of cell proliferation.

| Compound | IC50 (human IGF1R (hIGF1R)) | IC50 [1] | IC50 (human IR (hIR)) | IC50 [2] | IC50 (ALK) | IC50 (Colo205) |
| --- | --- | --- | --- | --- | --- | --- |
| COc1cc(N2CCN(C(C)C)CC2)ccc1Nc1nc(Nc2cc(F)ccc2C(N)=O)c2cc[nH]c2n1 [Example 79, 4-fluoro-2-[(2-{[4-[4-(1-methylethyl)-1-piperazinyl]-2-(methyloxy)phenyl]amino}-1H-pyrrolo[2,3-d]pyrimidin-4-yl)amino]benzamide] | 0.251 to 1 nM | < 100 nM | 0.251 to 1 nM | 100 to 500 nM |  |  |
| CCCN1CCCC(c2ccc(Nc3nc(Nc4ccccc4C(=O)NC)c4cc[nH]c4n3)c(OC)c2)C1 (centres unmarked) [Example 24, N-methyl-2-[(2-{[2-(methyloxy)-4-(1-propyl-3-piperidinyl)phenyl]amino}-1H-pyrrolo[2,3-d]pyrimidin-4-yl)amino]benzamide] | 1.26 to 3.98 nM | 100 to 500 nM |  | 100 to 500 nM | 0.251 to 1 nM |  |
| CCCN1CCC=C(c2ccc(Nc3nc(Nc4cc(F)ccc4C(=O)NCC(N)=O)c4cc[nH]c4n3)c(OC)c2)C1 [Example 67, N-(2-amino-2-oxoethyl)-4-fluoro-2-[(2-{[2-(methyloxy)-4-(1-propyl-1,2,5,6-tetrahydro-3-pyridinyl)phenyl]amino}-1H-pyrrolo[2,3-d]pyrimidin-4-yl)amino]benzamide] | 1.26 to 3.98 nM |  |  | 100 to 500 nM | 1.26 to 3.98 nM | 250 to 1000 nM |
| COc1cc(C2=CCCN(C)C2)ccc1Nc1nc(Nc2ccc(F)cc2C(N)=O)c2cc[nH]c2n1 [Example 55, 5-fluoro-2-[(2-{[2-(methyloxy)-4-(1-methyl-1,2,5,6-tetrahydro-3-pyridinyl)phenyl]amino}-1H-pyrrolo[2,3-d]pyrimidin-4-yl)amino]benzamide] |  | 100 to 500 nM | 0.251 to 1 nM | 100 to 500 nM | 0.251 to 1 nM |  |
| CCCN1CCC=C(c2ccc(Nc3nc(Nc4ccc(OC)cc4C(N)=O)c4cc[nH]c4n3)c(OC)c2)C1 [Example 38, 5-(methyloxy)-2-[(2-{[2-(methyloxy)-4-(1-propyl-1,2,5,6-tetrahydro-3-pyridinyl)phenyl]amino}-1H-pyrrolo[2,3-d]pyrimidin-4-yl)amino]benzamide] | 1.26 to 3.98 nM |  | 1.26 to 3.98 nM | 100 to 500 nM | 0.251 to 1 nM |  |
| CNC(=O)c1c(F)cccc1Nc1nc(Nc2cc3c(cc2OC)CCCN3C(=O)CN(C)C)nc2[nH]cc(C)c12 [Example 260, 2-[(2-{[1-(N,N-dimethylglycyl)-6-(methyloxy)-1,2,3,4-tetrahydro-7-quinolinyl]amino}-5-methyl-1H-pyrrolo[2,3-d]pyrimidin-4-yl)amino]-6-fluoro-N-methylbenzamide] | 0.251 to 1 nM | < 100 nM | 0.251 to 1 nM | < 100 nM |  |  |
| Cc1ccc(NC(=O)CN(C)C)cc1Nc1nc(Nc2cc3ccccc3cc2C(N)=O)c2cc[nH]c2n1 [Example 30, 3-{[2-({5-[(N,N-dimethylglycyl)amino]-2-methylphenyl}amino)-1H-pyrrolo[2,3-d]pyrimidin-4-yl]amino}-2-naphthalenecarboxamide] | 1.26 to 3.98 nM | > 500 nM | 0.251 to 1 nM |  | 5.01 to 200 nM |  |
| Cc1ccc(NC(=O)CN(C)C)cc1Nc1nc(Nc2cc(F)c(F)cc2C(N)=O)c2cc[nH]c2n1 [Example 106, 2-{[2-({5-[(N,N-dimethylglycyl)amino]-2-methylphenyl}amino)-1H-pyrrolo[2,3-d]pyrimidin-4-yl]amino}-4,5-difluorobenzamide] | 1.26 to 3.98 nM |  | 0.251 to 1 nM | > 500 nM | 5.01 to 200 nM |  |
| Cc1cc(N2CCOCC2)ccc1Nc1nc(Nc2ccccc2C(N)=O)c2cc[nH]c2n1 [Example 11, 2-[(2-{[2-methyl-4-(4-morpholinyl)phenyl]amino}-1H-pyrrolo[2,3-d]pyrimidin-4-yl)amino]benzamide] | 1.26 to 3.98 nM |  | 1.26 to 3.98 nM | 100 to 500 nM | 1.26 to 3.98 nM |  |
| Cc1ccc(NC(=O)CN(C)C)cc1Nc1nc(Nc2cc(Cl)ccc2C(N)=O)c2cc[nH]c2n1 [Example 111] | 1.26 to 3.98 nM |  | 1.26 to 3.98 nM | > 500 nM | 5.01 to 200 nM |  |
| CNC(=O)c1ccccc1Nc1nc(Nc2ccc(N3CCN(C(C)C)CC3)cc2OC)nc2[nH]ccc12 [Example 25, N-methyl-2-[(2-{[4-[4-(1-methylethyl)-1-piperazinyl]-2-(methyloxy)phenyl]amino}-1H-pyrrolo[2,3-d]pyrimidin-4-yl)amino]benzamide] | 1.26 to 3.98 nM |  | 1.26 to 3.98 nM | 100 to 500 nM | 0.251 to 1 nM |  |
| COc1cc(C2=CCCN(C(C)C)C2)ccc1Nc1nc(Nc2cc(F)c(F)cc2C(N)=O)c2cc[nH]c2n1 [Example 96, 4,5-difluoro-2-[(2-{[4-[1-(1-methylethyl)-1,2,5,6-tetrahydro-3-pyridinyl]-2-(methyloxy)phenyl]amino}-1H-pyrrolo[2,3-d]pyrimidin-4-yl)amino]benzamide] | 0.251 to 1 nM |  | 0.251 to 1 nM | < 100 nM | 0.251 to 1 nM |  |
| COc1cc2c(cc1Nc1nc(Nc3cccc(F)c3C(N)=O)c3c(C)c[nH]c3n1)N(C(=O)CN(C)C)CCC2 [Example 261, 2-[(2-{[1-(N,N-dimethylglycyl)-6-(methyloxy)-1,2,3,4-tetrahydro-7-quinolinyl]amino}-5-methyl-1H-pyrrolo[2,3-d]pyrimidin-4-yl)amino]-6-fluorobenzamide] | 0.251 to 1 nM | < 100 nM | 0.251 to 1 nM | < 100 nM |  |  |
| COc1ccc(OCCCN(C)C)cc1Nc1nc(Nc2ccc(F)cc2C(N)=O)c2cc[nH]c2n1 [Example 64, 2-[(2-{[5-{[3-(dimethylamino)propyl]oxy}-2-(methyloxy)phenyl]amino}-1H-pyrrolo[2,3-d]pyrimidin-4-yl)amino]-5-fluorobenzamide] | 1.26 to 3.98 nM |  |  | < 100 nM | 1.26 to 3.98 nM | 250 to 1000 nM |
| CN(C)CC(=O)Nc1ccc(OC(F)(F)F)c(Nc2nc(Nc3ccc(F)cc3C(N)=O)c3cc[nH]c3n2)c1 [Example 63, 2-{[2-({5-[(N,N-dimethylglycyl)amino]-2-[(trifluoromethyl)oxy]phenyl}amino)-1H-pyrrolo[2,3-d]pyrimidin-4-yl]amino}-5-fluorobenzamide] | 0.251 to 1 nM |  | 0.251 to 1 nM | 100 to 500 nM | 1.26 to 3.98 nM |  |
| CCCN1CCC=C(c2ccc(Nc3nc(Nc4ccc(C)cc4C(N)=O)c4cc[nH]c4n3)c(OC)c2)C1 [Example 33, 5-methyl-2-[(2-{[2-(methyloxy)-4-(1-propyl-1,2,5,6-tetrahydro-3-pyridinyl)phenyl]amino}-1H-pyrrolo[2,3-d]pyrimidin-4-yl)amino]benzamide] | 1.26 to 3.98 nM |  | 1.26 to 3.98 nM | > 500 nM | 0.251 to 1 nM |  |
| COc1cc(N2CCN(C(C)C)CC2)c(OC)cc1Nc1nc(Nc2cccc(F)c2C(N)=O)c2cc[nH]c2n1 [Example 47, 2-fluoro-6-[(2-{[4-[4-(1-methylethyl)-1-piperazinyl]-2,5-bis(methyloxy)phenyl]amino}-1H-pyrrolo[2,3-d]pyrimidin-4-yl)amino]benzamide] | 1.26 to 3.98 nM |  |  | < 100 nM | 1.26 to 3.98 nM | < 250 nM |
